The record followed here is patent US9776979B2, “EBI2 modulators” (Sanford-Burnham Medical Research Institute, priority 2013, dated 2017).

Chain of EBI2 (P32249 whole entry): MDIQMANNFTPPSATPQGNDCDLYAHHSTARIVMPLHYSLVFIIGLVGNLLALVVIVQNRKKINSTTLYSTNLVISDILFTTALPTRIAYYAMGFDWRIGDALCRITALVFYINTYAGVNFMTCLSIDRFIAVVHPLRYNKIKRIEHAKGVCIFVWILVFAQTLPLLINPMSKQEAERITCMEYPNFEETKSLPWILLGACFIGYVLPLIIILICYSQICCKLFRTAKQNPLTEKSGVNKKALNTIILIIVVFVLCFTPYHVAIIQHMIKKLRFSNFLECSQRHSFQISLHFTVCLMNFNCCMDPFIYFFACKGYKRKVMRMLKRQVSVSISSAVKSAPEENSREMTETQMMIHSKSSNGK

The test has as its target EBI2 (Homo sapiens, UniProt P32249). The experiment in a line: Cell-based luminescent assay (EBI2 modulation). As to conditions: cell-based luminescence; 7a,25-OHC final assay concentration 80 nM; 60 minutes incubation; read-out: IC50. The essentials: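 Cells plated overnight at 37° C, then exposed to compound at 4-5 uM final with 80 nM 7a,25-OHC agonist for 60 min at 37° C. Luminescence read after 60 min detection at 25° C in the dark; values normalized to neutral and stimulator controls and plate-pattern corrected.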
As for `O=C(CCc1ccc(F)cc1)N1CCN(S(=O)(=O)/C=C/c2ccccc2)CC1` [Compound C406, 1-{4-[((1E)-2-phenylvinyl)sulfonyl]piperazinyl}-3-(4-fluorophenyl)propan-1-one], the IC50 – broadly, the midpoint of a concentration-inhibition curve – lay within 0.1 to 0.5 µM.

As for `O=C(/C=C/c1ccccc1)N1CCN(CCOc2ccc(Cl)cc2Cl)CC1` [Compound C407, (2E)-1-{4-[2-(2,4-dichlorophenoxy)ethyl]piperazinyl}-3-phenylprop-2-en-1-one], the IC50 was in the range of 0.1 to 0.5 µM.

For the molecule `O=C(C#Cc1ccc(Br)cc1)N1CCN(Cc2ccc(C(F)(F)F)cc2)CC1` [Compound C408, 3-(4-bromophenyl)-1-(4-{[4-(trifluoromethyl)phenyl]methyl}piperazinyl)prop-2-yn-1-one], the IC50 fell in the range of 0.1 to 0.5 µM.

Regarding `O=C(c1ccc(B(O)O)cc1)N1CCN(C(=O)c2cc3cc(Cl)ccc3[nH]2)CC1` [Compound C409, 4-(4-(5-chloro-1H-indole-2-carbonyl)piperazine-1-carbonyl)phenylboronic acid], the half-maximal inhibitory concentration (IC50) was in the range of 0.1 to 0.5 µM.

Consider `O=C(c1cc2cc(Cl)ccc2[nH]1)N1CCC(Oc2ccccc2)CC1` [Compound C413, 5-chloroindol-2-yl 4-phenoxypiperidyl ketone], for which the IC50 was in the range of 0.1 to 0.5 µM.

With `O=C(Oc1ccccc1)N1CCN(C(=O)c2cc3cc(Cl)ccc3[nH]2)CC1` [Compound C416, phenyl 4-[(5-chloroindol-2-yl)carbonyl]piperazinecarboxylate], the IC50 lay within 0.1 to 0.5 µM.

In the case of `O=C(Nc1cccc(F)c1)C1CCN(C(=O)c2cc3cc(Cl)ccc3[nH]2)CC1` [Compound C417, {1-[(5-chloroindol-2-yl)carbonyl](4-piperidyl)}-N-(3-fluorophenyl)carboxamide], the IC50 lay within 0.1 to 0.5 µM.

Take `O=C(c1cc2cc(Cl)ccc2[nH]1)N1CCN(Cc2ccc(F)c(C(F)(F)F)c2)CC1` [Compound C420, 5-chloroindol-2-yl 4-{[4-fluoro-3-(trifluoromethyl)phenyl]methyl}piperazinyl ketone]: the IC50 lay within 0.1 to 0.5 µM.

As for `COc1ccc(-c2ccc(S(=O)(=O)N3CCN(C(=O)c4cc5cc(Cl)ccc5[nH]4)CC3)cc2)cc1` [Compound C421, 5-chloroindol-2-yl 4-{[4-(4-methoxyphenyl)phenyl]sulfonyl}piperazinyl ketone], the IC50 fell in the range of 0.1 to 0.5 µM.

Turning to `O=C(c1cc2cc(Cl)ccc2[nH]1)N1CCN(Cc2cc(C(F)(F)F)cc(C(F)(F)F)c2)CC1` [Compound C423, 4-{[3,5-bis(trifluoromethyl)phenyl]methyl}piperazinyl 5-chloroindol-2-yl ketone], the IC50 was 0.1 to 0.5 µM.

As to `O=C(c1cc2cc(Cl)ccc2[nH]1)N1CCN(Cc2ccc(F)cc2C(F)(F)F)CC1` [Compound C426, 5-chloroindol-2-yl 4-{[4-fluoro-2-(trifluoromethyl)phenyl]methyl}piperazinyl ketone], the IC50 lay within 0.1 to 0.5 µM.

As for `O=C(c1cc2cc(Cl)ccc2[nH]1)N1CCN(Cc2ccc(F)cc2F)CC1` [Compound C427, 4-[(2,4-difluorophenyl)methyl]piperazinyl 5-chloroindol-2-yl ketone], the IC50 is 0.1 to 0.5 µM.

As for `O=C(c1cc2cc(Cl)ccc2[nH]1)N1CCN(Cc2ccc(Cl)cc2C(F)(F)F)CC1` [Compound C428, 5-chloroindol-2-yl 4-{[4-chloro-2-(trifluoromethyl)phenyl]methyl}piperazinyl ketone], the IC50 fell in the range of 0.1 to 0.5 µM.

With `O=C(Nc1ccc(Cl)cc1)N1CCN(C(=O)c2cc3cc(Cl)ccc3[nH]2)CC1` [Compound C429, {4-[(5-chloroindol-2-yl)carbonyl]piperazinyl}-N-(4-chlorophenyl)carboxamide], the IC50 fell in the range of 0.1 to 0.5 µM.

With `O=C(C=Cc1ccc2c(c1)OCO2)N1CCN(C(=O)c2ccc(C(F)(F)F)cc2)CC1` [Compound C430, 3-(2H-benzo[3,4-d]1,3-dioxolen-5-yl)-1-(4-{[4-(trifluoromethyl)phenyl]carbonyl}piperazinyl)prop-2-en-1-one], the IC50 lay in the range of 0.1 to 0.5 µM.

`O=C(c1cc2cc(Cl)ccc2[nH]1)N1CCN(c2ccc(F)cc2F)CC1` [Compound C434, 4-(2,4-difluorophenyl)piperazinyl 5-chloroindol-2-yl ketone]: the IC50 was 0.1 to 0.5 µM.
